The viability, T/C is the result in the treated group divided by that in the control group, in per cent. A word on the IC50: it is the midpoint of a concentration-inhibition curve.

“And” between values parts separate entries of the source, which are not always exact repeats. Identical values can stand only once.

The subject of this experiment is 931267-113-T-J1-PDC multicell spheroid viability. Put plainly: Anticancer human tumor 931267-113-T-J1-PDC patient-derived colon adenocarcinoma cell line growth inhibition [PI3K]. The conditions noted are these: for viability, T/C: stronger effect = lower value. The text has this:
Combinatorial screen of targeted agents with the PI3K inhibitors inavolisib, alpelisib, duvelisib, and copanlisib in multi-cell type tumor spheroids
A high-throughput screen of multi-cell type tumor spheroids was designed to identify active combinations of targeted small molecules and PI3K pathway inhibitors. Complex spheroids include a stromal component modeled by human endothelial cells (HUVEC) and fibroblasts modeled by human mesenchymal stem cells (MSCs). The concentration ranges selected for each drug and investigational agent were based upon clinically achievable concentrations if the clinical Cmax of the agent was known.
Compounds. The drugs and investigational agents: inavolisib (NSC800729), alpelisib (NSC765974), duvelisib (NSC772469), copanlisib (NSC816437), ipatasertib (NSC767898), afuresertib (NSC778305), talazoparib (NSC767125), sapanisertib (NSC764658), selumetinib (NSC741078), tovorafenib (DAY101, NSC766906), vemurafenib (NSC761431), ravoxertinib (NSC781343), sotorasib (NSC818433), MRTX1133 (NSC 836407), abemaciclib (NSC 768073), palbociclib (NSC758247), venetoclax (NSC 766270), SY5609 (NSC837396), enzalutamide (NSC755605), and darolutamide (NSC825331), were obtained from the National Cancer Institute (NCI) Developmental Therapeutics Program Chemical Repository. The FDA-approved anticancer drug set is available from the NCI Developmental Therapeutics Program. […] The stock solutions were prepared in dimethyl sulfoxide (DMSO, Sigma-Aldrich, St. Louis, MO, cat. D2650) at 800-fold the tested concentration and stored at -70 degrees C prior to their use. All drugs and investigational agents were tested over a range starting from a high concentration at or near the clinical Cmax and decreasing in half-log increments. If the clinical Cmax for an agent had not been determined, the highest concentration tested was 10 microM.
Cell Culture. All cells were maintained in an incubator at 37 degrees C and 5% CO2 with 95% humidity. The PDC lines were cultured according to standard operating procedures established by the NCI PDMR (https://pdmr.cancer.gov/sops/default.htm). All PDCs were thawed and cultured in Matrigel-coated flasks prepared with a working solution of 1X Ham's F-12 nutrient mix, without supplementation (Invitrogen, Waltham, MA, cat. 11765054), 100 U/mL penicillin-streptomycin (Invitrogen, cat. 15140122), and 2.5% Matrigel (Corning Inc., Corning, NY, cat. 354248) for the first three passages. The 354836-022-R-J1-PDC, 475296-252-R-J1-PDC, and 997726-040-R-J2-PDC lines were cultured in 6A media, which includes advanced DMEM/F-12 (Thermo Fisher Scientific, cat. 12634028), 10 mM HEPES (Thermo Fisher Scientific, cat. 15630080), 1X GlutaMAX supplement (Thermo Fisher Scientific, cat. 35050061), 0.1 mg/mL primocin (InvivoGen, San Diego, CA, cat. ant-pm-2), 10% defined fetal bovine serum, heat inactivated (HyClone Laboratories Inc., Logan, UT, cat. SH30070.03HI), 50% L-WRN conditioned media (ATCC, cat. CRL-3276), 1.25 mM N-Acetyl-L-cysteine (Sigma-Aldrich, cat. A9165), 10 mM nicotinamide (Sigma-Aldrich, cat. N0636), 1X B-27 supplement (Thermo Fisher Scientific, cat. 17504044), 1X N-2 supplement (Thermo Fisher Scientific, cat. 17502048), and 10 microM Y-27632 dihydrochloride (Tocris Bioscience, Bristol, United Kingdom, cat. 1254). The 624824-186-R-J2-PDC line was cultured in 6C/Colon 1B media, which includes all 6A media components plus 50 ng/mL human EGF recombinant protein (Thermo Fisher Scientific, cat. PHG0311). […]

Setting [1] is: compound alone, run of 05/08/2023.
[2] abbreviates: compound alone, run of 05/09/2023.
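Further: viability read 7 days after compound addition.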

Regarding `CC(=O)c1c(C)c2cnc(Nc3ccc(N4CCNCC4)cn3)nc2n(C2CCCC2)c1=O`, the viability, T/C (compound 0.000316 µM) is 112% and 99.6% and 105%; the viability, T/C (compound 0.001 µM) was 110% and 101% and 102%; the viability, T/C (compound 0.00316 µM) was 103% and 113% and 106%; the viability, T/C (compound 0.01 µM) is 108% and 111% and 103%; the viability, T/C (compound 0.0316 µM) is 99.5% and 106% and 104%; the viability, T/C (compound 0.1 µM) is 89.5% and 91.3% and 105%. Further, the IC50 (curve of compound) is more than 0.1 µM.

On to `CC(C)NCC(C(=O)N1CCN(c2ncnc3c2C(C)CC3O)CC1)c1ccc(Cl)cc1` (configuration not stated), for which the viability, T/C was 99.5% [middle of 4 runs] (compound 0.0316 µM); 95.4% [middle of 4 runs] (compound 0.1 µM); 98.5% [middle of 4 runs] (compound 0.316 µM); 99.6% [middle of 4 runs] (compound 1 µM); 89.5% [middle of 4 runs] (compound 3.16 µM); 80.2% [middle of 4 runs] (compound 10 µM). Also, the IC50 (curve of compound) was more than 10 µM.

As for `CC(C)n1nc(-c2ccc3oc(N)nc3c2)c2c(N)ncnc21`, the viability, T/C is 101% [middle of 4 runs] (compound 0.000316 µM); 88.2% and 95% (2×) and 92.1% (compound 0.001 µM); 96.8% [middle of 4 runs] (compound 0.00316 µM); 96.1% [middle of 4 runs] (compound 0.01 µM); 81.6% [middle of 4 runs] (compound 0.0316 µM); 52.2% [middle of 4 runs] (compound 0.1 µM). For the same molecule, the IC50 (curve of compound) is 0.0848 µM and 0.0924 µM and > 0.1 µM.

`CC(Cn1ccc(-c2ccc(C#N)c(Cl)c2)n1)NC(=O)c1cc(C(C)O)[nH]n1` (configuration not stated): the viability, T/C (compound 0.0316 µM) is 109% and 95.2% and 110%; the viability, T/C (compound 0.1 µM) was 107% and 94.8% and 102%; the viability, T/C (compound 0.316 µM) was 109% and 108% and 101%; the viability, T/C (compound 1 µM) is 117% and 108% and 106%; the viability, T/C (compound 3.16 µM) was 98.7% and 110% and 107%; the viability, T/C (compound 10 µM) was 103% and 102% and 108%. The IC50 (curve of compound) was more than 10 µM.

For `CC(Nc1ccc2c(c1)OCCn1cc(N3C(=O)OCC3C(F)F)nc1-2)C(N)=O` (configuration not stated), the viability, T/C runs as follows: (compound 0.00316 µM) 99.8% [middle of 8 runs]; (compound 0.01 µM) 100% [middle of 8 runs]; (compound 0.0316 µM) 96.4% [middle of 8 runs]; (compound 0.1 µM) 83.7% [middle of 8 runs]; (compound 0.316 µM) 86% [middle of 8 runs]; (compound 1 µM) 83.1% [middle of 8 runs]. In addition, the concentration for half-maximal inhibition (IC50) under setting [1] was more than 1 µM.

Take `CC(Nc1ncnc2nc[nH]c12)c1cc2cccc(Cl)c2c(=O)n1-c1ccccc1` (configuration not stated): the viability, T/C (compound 0.0316 µM) was 102% [middle of 8 runs]; the viability, T/C (compound 0.1 µM) was 99.7% [middle of 8 runs]; the viability, T/C (compound 0.316 µM) is 102% [middle of 8 runs]; the viability, T/C (compound 1 µM) is 100% [middle of 8 runs]; the viability, T/C (compound 3.16 µM) is 99.7% [middle of 8 runs]; the viability, T/C (compound 10 µM) is 96.7% [middle of 8 runs]. In addition, the IC50 under setting [2] was more than 10 µM.

In the case of `CC1(C)CCC(CN2CCN(c3ccc(C(=O)NS(=O)(=O)c4ccc(NCC5CCOCC5)c([N+](=O)[O-])c4)c(Oc4cnc5[nH]ccc5c4)c3)CC2)=C(c2ccc(Cl)cc2)C1`, the viability, T/C was 97.9% [middle of 4 runs] (compound 0.0316 µM); 95.5% [middle of 4 runs] (compound 0.1 µM); 106% [middle of 4 runs] (compound 0.316 µM); 103% [middle of 4 runs] (compound 1 µM); 93.7% and 104% and 105% (2×) (compound 3.16 µM).

In the case of `CCCS(=O)(=O)Nc1ccc(F)c(C(=O)c2c[nH]c3ncc(-c4ccc(Cl)cc4)cc23)c1F`, the viability, T/C runs as follows: (compound 0.0316 µM) 102% (2×) and 106% and 94%; (compound 0.1 µM) 116% (2×) and 93.5% and 96.7%; (compound 0.316 µM) 109% [middle of 4 runs]; (compound 1 µM) 129% [middle of 4 runs]; (compound 10 µM) 5.21% [middle of 4 runs]. The IC50 (curve of compound) was 6.15 µM [middle of 4 runs].

For `CCN1CCN(Cc2ccc(Nc3ncc(F)c(-c4cc(F)c5nc(C)n(C(C)C)c5c4)n3)nc2)CC1`, the viability, T/C by setting is: (compound 0.00316 µM) 101% [middle of 4 runs]; (compound 0.01 µM) 105% (2×) and 103% and 99.8%; (compound 0.0316 µM) 103% [middle of 4 runs]; (compound 0.1 µM) 102% (2×) and 100% and 96.4%; (compound 0.316 µM) 96.2% [middle of 4 runs]; (compound 1 µM) 84.8% [middle of 4 runs]. In addition, under “curve of compound”, the IC50 was more than 1 µM.

In the case of `CNC(=O)c1ccc(N2C(=S)N(c3ccc(C#N)c(C(F)(F)F)c3)C(=O)C2(C)C)cc1F`, the viability, T/C (compound 0.0316 µM) was 104% [middle of 4 runs]; the viability, T/C (compound 0.1 µM) is 103% [middle of 4 runs]; the viability, T/C (compound 0.316 µM) was 98.2% [middle of 4 runs]; the viability, T/C (compound 1 µM) was 101% [middle of 4 runs]; the viability, T/C (compound 3.16 µM) was 102% and 108% (2×) and 105%; the viability, T/C (compound 10 µM) is 108% and 105% (2×) and 93.6%. Under “curve of compound”, the IC50 is more than 10 µM.

Turning to `COc1c(OCCCN2CCOCC2)ccc2c3n(c(=NC(=O)c4cnc(N)nc4)nc12)CCN3`, the viability, T/C (compound 0.00316 µM) is 101% [middle of 8 runs]; the viability, T/C (compound 0.01 µM) was 95.7% [middle of 8 runs]; the viability, T/C (compound 0.0316 µM) is 80.6% [middle of 8 runs]; the viability, T/C (compound 0.1 µM) is 67.6% [middle of 8 runs]; the viability, T/C (compound 0.316 µM) was 51% [middle of 8 runs]; the viability, T/C (compound 1 µM) is 39.6% [middle of 8 runs]. Moreover, the IC50 under setting [2] is 375 nM [middle of 8 runs].

Take `C[C@@H](NC(=O)c1ncnc(N)c1Cl)c1ncc(C(=O)Nc2cc(C(F)(F)F)c(Cl)cn2)s1`: the viability, T/C reads like this: (compound 0.0316 µM) 117% [middle of 4 runs]; (compound 0.1 µM) 112% [middle of 4 runs]; (compound 0.316 µM) 111% [middle of 4 runs]; (compound 1 µM) 114% [middle of 4 runs]; (compound 3.16 µM) 102% (2×) and 112% and 103%; (compound 10 µM) 78% [middle of 4 runs]. Besides, the IC50 (curve of compound) is more than 10 µM.

Take `Cc1nc(NC(=O)N2CCCC2C(N)=O)sc1-c1ccnc(C(C)(C)C(F)(F)F)c1` (configuration not stated): the viability, T/C runs as follows: (compound 0.0316 µM) 99.6% [middle of 7 runs]; (compound 0.1 µM) 94.8% [middle of 7 runs]; (compound 0.316 µM) 84.8% [middle of 7 runs]; (compound 1 µM) 80.8% [middle of 7 runs]; (compound 3.16 µM) 74.6% [middle of 7 runs]; (compound 10 µM) 63.1% [middle of 7 runs]. In addition, under setting [1], the IC50 is more than 10 µM.

Turning to `Cn1cnc2c(F)c(Nc3ccc(Br)cc3Cl)c(C(=O)NOCCO)cc21`, the viability, T/C reads like this: (compound 0.00949 µM) 89.7% [middle of 4 runs]; (compound 0.03 µM) 67.5% [middle of 4 runs]; (compound 0.0949 µM) 53.3% [middle of 4 runs]; (compound 0.3 µM) 35.9% [middle of 4 runs]; (compound 0.949 µM) 22.4% [middle of 4 runs]; (compound 3 µM) 12.2% (2×) and 12.7% and 13.3%. For the same molecule, the half-maximal inhibitory concentration (IC50) (curve of compound) is 118 nM [middle of 4 runs].

In the case of `Cn1ncnc1[C@H]1c2n[nH]c(=O)c3cc(F)cc(c23)N[C@@H]1c1ccc(F)cc1`, the viability, T/C by setting is: (compound 0.000316 µM) 104% [middle of 4 runs]; (compound 0.001 µM) 107% [middle of 4 runs]; (compound 0.00316 µM) 101% [middle of 4 runs]; (compound 0.01 µM) 111% and 106% and 97% (2×); (compound 0.0316 µM) 112% [middle of 4 runs]; (compound 0.1 µM) 95.6% [middle of 4 runs]. For the same molecule, under “curve of compound”, the IC50 is more than 0.1 µM.
